This note sets out measurements from paper PMC5052595, “Structure-based discovery of potentially active semiochemicals for Cydia pomonella (L.)” (Scientific Reports, 2016).

The target in assay [1] is CpomPBP1. The experiment in a line: Competitive binding assay with 1-NPN fluorescence probe. Set-up: species or system Cydia pomonella. Particulars: for Kd: wild type CpomPBP1, 2 μM protein, 2 μM 1-NPN, 50 mM Tris-HCl pH 7.0, read-out: dissociation constant (Kd). The method, then: (§1) According to the results of virtual screening and commercial availability of the matched semiochemicals, 8 compounds (including Codlemone) were finally subjected to competitive binding assay by taking 1-NPN as the fluorescence probe. All ligands including 1-NPN were dissolved in ethanol of GC grade. […] The fluorescence was measured on a Hitachi F-4600 spectrofluorimeter with a slit width of 5 nm for excitation and emission. The excitation wavelength was decided to be 337 nm and the fluorescence emissions were recorded from 350 to 500 nm. The in vitro binding assays between CpomPBP2 and small molecule compounds were performed in the same way.
(§2) It was assumed that CpomPBP1 (MT and WT) was 100% active and the binding between protein and ligand was 1:1 at saturation. To analyze the obtained data and to calculate the Kd of each ligand, Graphpad Prism software (Graphpad software, Inc.) was employed.

Assay [2] deals with CpomPBP1F36A. Put plainly: Competitive binding assay, mutant protein. Set-up: species or system Cydia pomonella. The following applies: F36A; RTln(Kd-MT/Kd-WT). The method, then: as §1
(§3) To test binding ability changes of CpomPBP1 caused by the mutation of each target site, the in vitro binding assays between CpomPBP1 proteins (MT and WT CpomPBP1) and ETrME was implemented according to the part of competitive binding assay.
as §2
(§4) The experimental binding free energy of the complexes formed by ETrME and each mutant was calculated by the equation (1): […]
(§5) In this equation, Kd-MT and Kd-WT are the dissociation constants for mutant and wild CpomPBP1 respectively. R stands for the ideal gas constant and T means the temperature in Kelvin.

Assay [3] has as its system CpomPBP1F12A. Put plainly: Competitive binding assay, mutant protein. Set-up: species or system Cydia pomonella. The following applies: F12A; RTln(Kd-MT/Kd-WT). On the procedure:
as §1, §3, §2, §4, §5

In assay [4] the test system is CpomPBP1I94A. The experiment in a line: Competitive binding assay, mutant protein. Further details: species or system Cydia pomonella. The following applies: I94A; RTln(Kd-MT/Kd-WT). On the procedure:
as §1, §3, §2, §4, §5

Assay [5] concerns CpomPBP1W37A. Put plainly: Competitive binding assay, mutant protein. Set-up: species or system Cydia pomonella. The following applies: W37A; RTln(Kd-MT/Kd-WT). On the procedure: as §1, §3, §2, §4, §5
Assay [6] deals with CpomPBP1I52A. Put plainly: Competitive binding assay, mutant protein. Further details: species or system Cydia pomonella. The following applies: I52A; RTln(Kd-MT/Kd-WT). The method, then:
as §1, §3, §2, §4, §5

In assay [7] the target is CpomPBP2 (Cydia pomonella, UniProt I3ZNT9). The experiment in a line: Competitive binding assay with 1-NPN fluorescence probe. On the procedure:
as §1, §2

CpomPBP2, sequence (I3ZNT9 26-169 limits assumed): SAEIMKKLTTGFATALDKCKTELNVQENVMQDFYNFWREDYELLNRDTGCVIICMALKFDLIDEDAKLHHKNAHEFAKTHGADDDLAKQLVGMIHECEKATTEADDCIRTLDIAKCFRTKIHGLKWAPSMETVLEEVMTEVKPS

On to `CCCCC/C=C\C/C=C\C/C=C\CCCCCCC(=O)O` [Z-8,11,14-Eicosatrienoic acid], for which, in assay [1], the Kd was determined as 12.8 µM.

On to `CCC=CCC=CCC=CCC=CC=CC(O)CCCC(=O)O` (racemic) [(±)5-HEPE], for which the Kd in assay [1] was found to be 8.23 µM.

For the compound `CCC=CCC=CCC=CCCCCCCCCCC(=O)OC` [ETrME], the ΔΔGbind-exp in assay [2] was determined as 13.6 kJ/mol; in assay [3], 11.7 kJ/mol; in assay [4], 5.86 kJ/mol; in assay [5] it was 14.8 kJ/mol; in assay [6] it was 7.78 kJ/mol. Also, the Kd came to 3.14 µM in assay [1] and 8.62 µM in assay [7] (CpomPBP2, 1-NPN competitive binding, read-out: dissociation constant (Kd)).

`C/C=C/C=C/CCCCCCCO` [Codlemone, reference compound]: the Kd in assay [1] was 3.78 µM. The “binding to CpomPBP2 (in words)” value in assay [7] (titration course, 1-NPN probe) is reported as “no binding”.

On to `CCCCC/C=C\C/C=C\CCCCCCCC(=O)O` [Linoleic acid], for which the “binding to CpomPBP1 (in words)” value in assay [1] (titration 0 to 64 μM ligand, 1-NPN probe) is on record as “no binding”.

As a reminder, the Kd is the concentration at which binding is half-saturated.
